The values below come from patent US20190352341A1, “MODIFIED PEPTIDES AND THEIR USE FOR TREATING SYSTEMIC LUPUS ERYTHEMATOSUS” (IMMUPHARMA FRANCE SA, priority 2018, published 2019).

SMILES strings stand for the structures. Where “and” joins values, the source holds several entries; their conditions need not be identical. Identical values can stand only once. Numbered stars: 1 amine (or outer) side, 2 acyl side, 3 side chain; on linkers, the order of the positions; unused ones are H or OH. Square brackets hold non-standard residues; d marks the D form. Peptide text beside a SMILES is read from it. ξ: configuration not given here. X1 = CSCC[C@H](NC(=N)[C@H](Cc1c[nH]cn1)N[*:1])C(=O)[*:2]; pS = N[C@@H](COP(=O)(O)O)C(=O)O; Ile(3ξ) = CCC(C)[C@H](N)C(=O)O

One data set relates to Balb/c mice. Nature of the data set: 31-day HDM-induced asthma model, airway response to methacholine (Flexivent). The format is in vivo, mouse. As to conditions: for Crs / Ers / Rrs: individual mice. The procedure:
The aim of this study was to evaluate the effect of the P140 phosphopeptide administered systemically (intravenously) in a 31-day model of HDM-induced asthma in mice. The P140 phosphopeptide was solubilized in sterile water (Braun) and 10× concentrate sterile saline was added to adjust osmolarity to 300 mosm. Osmolarity was controlled with a micro osmometer (Löser, type 15) and validated (303 mosm). The P140 phosphopeptide was used in vivo at the dose of 4 mg/kg by intravenous (i.v.) routes. Control animals received equivalent volumes (2 ml/kg) of saline (Table 8).
Nine-week-old male Balb/c mice were sensitized by intranasal (i.n.) administration of HDM extract (Stallergenes): 1 μg in 25 μl saline on days 0, 1, 2, 3, 4, and 10 μg on days 14 and 21. Mice were challenged by i.n. administration of HDM (1 μg) and/or saline on days 28, 29 and 30. Mice were treated by i.v. injection (2 ml/kg) of P140 or solvent on day 25 (see FIG. 14).
Airway response to Methacholine (Flexivent®). On day 31, airway responses to PBS then methacholine were assessed using a forced oscillation technique (Flexivent®, SCIREQ, Montreal, Canada) as described (Daubeuf et al, Bioprotocol, 645, 2013). Mice were anesthetized with an intraperitoneal injection of xylasine (Rompun®; 1 mg/kg), followed fifteen minutes later by an intraperitoneal injection of pentobarbital sodium (3.64 mg/Kg). The trachea was exposed and an 18-gauge metal needle was inserted into the trachea. Airways were connected to a computer-controlled small animal ventilator, and quasi-sinusoidally ventilated with a tidal volume of 10 ml/Kg at a frequency of 150 breaths/min and a positive end-expiratory pressure of 2 cm H2O to achieve a mean respiratory volume close to that of spontaneous breathing. After baseline measurement, each mouse was challenged for 10 sec with an aerosol of PBS generated with an in-line nebulizer and administered directly through the ventilator. Then, aerosolized methacholine (MCh) at 50 mg/ml was administered for 10 sec. The effect of methacholine was calculated as the peak response, i.e. the mean of the three maximal values integrated for calculation of airway resistance (R, cm H20·s·mL^−1), elastance (E, cm H20·mL^−1) and compliance (C, mL·cm H20^−1).
All mice were sensitized to HDM on days 0, 1, 2, 3, 4, 14, 21, and challenged either with saline ([…]) or HDM (challenge with allergen). Results are presented as means±SEM. Differences between groups were tested for statistical significance using Student's t test for inflammatory cells and a two-way ANOVA followed by Bonferroni post-test for airway responses.

The next data set relates to MRL/lpr mice. The data set can be described thus: Survival analysis in MRL/lpr mice. The format is in vivo, mouse. The settings on record: female MRL/lpr mice, peptide intravenously from five weeks of age; NaCl control 25 weeks. On the procedure: It has been determined that this mouse strain carries a mutation in the fas gene. Also, the MRL/lpr is a useful model to study behavioural and cognitive deficits found in autoimmune diseases and the efficacy of immunosuppressive agents [Monneaux et al., 2003, Eur. J. Immunol. 33, 287-296].
Five-week-old female MRL/lpr mice received P140 or peptide P140(MO) intravenously as described (Monneaux et al., 2003, Eur. J. Immunol. 33, 287-296). All experimental protocols were carried out with the approval of the local Institutional Animal Care and Use Committee (CREMEAS). As control, mice were injected with NaCl.
Twenty mice were used for each peptide or NaCl.
Statistical tests were performed using GraphPad Prism version 5.0. The two-way ANOVA test was used to analyze statistical significance of proteinuria differences between control and peptide-treated groups of mice. Survival of control and P140 analogue-treated female MRL/lpr mice was analyzed by the Kaplan-Meier method, and the significance of differences was determined by the log-rank test. For the other variables, statistical significance was assessed using the Student's t-test. p values less than 0.05 were considered significant.

The test system of the next data set is SLE patients. The data set can be described thus: Clinical trial in SLE patients (SRI-4 response). The format is in vivo, human. The procedure: Human patients with SLE were administered the “standard of care” for SLE+placebo or SEQ ID NO.:1 (serine 10 phosphorylated) (“P140”). The P140 peptide was administered in a solution with mannitol; the placebo was a mannitol solution only. Patients were treated for 52 weeks.
Based on the protocol and the commonly accepted study design, there were two groups of patients: (1) patients receiving P140 plus “Standard of Care” and (2) patients receiving placebo plus “Standard of Care”. “Standard of Care” includes treatment with other drugs such as steroids, anti-malarials, methotrexate etc. No patients were treated just with placebo, but all were receiving other drug treatments. The definition of a “responder” is based on the SLE Responder Index (SRI-4) score, which requires a reduction of at least four points in this score. Therefore, patients who improve by less than four points are counted as non-responders, but also no distinction is made between patients who improve by more than 4 points, all being equal “responders”.
The SRI-4 score comprises criteria from three different internationally validated indices, SELENA-SLE Disease Activity Index (SELENA-SLEDAI), Physician Global Assessment (PGA) and the British Isles Lupus Assessment Group (BILAG) 2004. See Luijten, K. M. et al., Autoimmun Rev. 2012 March; 11(5):326-9.

The mark [1] stands for this setting: HDM-challenged (HDM + P140), first of two unheaded values (presumably PBS).
Where [2] appears, read: HDM-challenged (HDM + P140), second of two unheaded values (presumably MCh 50 mg/mL).
[3] abbreviates: chronic asthma (saline-challenged), methacholine 50 mg/ml, P140 i.v. 4 mg/kg day 25.
Setting [4] is: saline-challenged (chronic asthma), first of two unheaded values (presumably PBS).
[5] abbreviates: saline-challenged (chronic asthma), second of two unheaded values (presumably MCh 50 mg/mL).

`CCC(C)[C@H](NC(=O)[C@H](Cc1ccccc1)NC(=O)[C@H](C)NC(=O)[C@H](Cc1ccc(O)cc1)NC(=O)CNC(=O)[C@H](CCCNC(=N)N)NC(=O)[C@@H]1CCCN1C(=O)[C@H](CCCCN)NC(=O)CNC(=O)[C@H](COP(=O)(O)O)NC(=O)[C@H](CCCNC(=N)N)NC(=O)[C@H](CCCCN)NC(=O)[C@H](CO)NC(=O)[C@H](Cc1ccc(O)cc1)NC(=O)[C@@H](NC(=O)[C@H](CCSC)NC(=N)[C@H](Cc1c[nH]cn1)NC(=O)[C@@H](NC(=O)[C@@H](N)CCCNC(=N)N)C(C)CC)C(C)C)C(=O)N[C@@H](CCC(=O)O)C(=O)N[C@@H](Cc1ccc(O)cc1)C(=O)O` (stereo partly shown) [Compound P140] (H-R[Ile(3ξ)][X1]VYSKR[pS]GKPRGYAF[Ile(3ξ)]EY-OH): the Crs was 0.0554 mL/cmH2O and 0.0514 mL/cmH2O and 0.0528 mL/cmH2O and 0.0566 mL/cmH2O and 0.0492 mL/cmH2O and 0.0458 mL/cmH2O and 0.0552 mL/cmH2O and 0.0589 mL/cmH2O in the data set on Balb/c mice (setting [1]); 0.0146 mL/cmH2O and 0.0075 mL/cmH2O and 0.0062 mL/cmH2O and 0.0065 mL/cmH2O and 0.0101 mL/cmH2O and 0.0060 mL/cmH2O and 0.0138 mL/cmH2O and 0.0081 mL/cmH2O in the data set with Balb/c mice (setting [2]); 0.0545 mL/cmH2O and 0.0498 mL/cmH2O and 0.0569 mL/cmH2O and 0.0541 mL/cmH2O and 0.0650 mL/cmH2O in the data set with Balb/c mice (setting [4]); 0.0304 mL/cmH2O and 0.0132 mL/cmH2O and 0.0380 mL/cmH2O and 0.0238 mL/cmH2O and 0.0370 mL/cmH2O in the data set on Balb/c mice (setting [5]). Besides, the Ers in the data set with Balb/c mice (setting [1]) was 18.0582 cmH2O/mL and 19.4433 cmH2O/mL and 18.9515 cmH2O/mL and 17.6781 cmH2O/mL and 20.3326 cmH2O/mL and 21.8367 cmH2O/mL and 18.1106 cmH2O/mL and 16.9723 cmH2O/mL; in the data set on Balb/c mice (setting [2]) it was 79.8018 cmH2O/mL and 148.4985 cmH2O/mL and 188.1151 cmH2O/mL and 219.9720 cmH2O/mL and 125.7688 cmH2O/mL and 173.4582 cmH2O/mL and 72.6033 cmH2O/mL and 131.8035 cmH2O/mL; with Balb/c mice (setting [4]), 18.3671 cmH2O/mL and 20.0811 cmH2O/mL and 17.5777 cmH2O/mL and 18.4893 cmH2O/mL and 15.3975 cmH2O/mL; with Balb/c mice (setting [5]) it was 33.3720 cmH2O/mL and 84.9688 cmH2O/mL and 26.3200 cmH2O/mL and 42.4174 cmH2O/mL and 28.6047 cmH2O/mL. In addition, the Rrs in the data set with Balb/c mice (setting [1]) is 0.6405 cmH2O · s/mL and 0.6092 cmH2O · s/mL and 0.7972 cmH2O · s/mL and 0.5185 cmH2O · s/mL and 0.6804 cmH2O · s/mL and 0.6365 cmH2O · s/mL and 0.4744 cmH2O · s/mL and 0.5456 cmH2O · s/mL; with Balb/c mice (setting [2]), 5.6421 cmH2O · s/mL and 10.3886 cmH2O · s/mL and 11.9654 cmH2O · s/mL and 10.5419 cmH2O · s/mL and 8.8810 cmH2O · s/mL and 13.0087 cmH2O · s/mL and 7.0705 cmH2O · s/mL and 9.7688 cmH2O · s/mL; in the data set on Balb/c mice (setting [4]), 0.5590 cmH2O · s/mL and 0.8945 cmH2O · s/mL and 0.5926 cmH2O · s/mL and 0.8074 cmH2O · s/mL and 0.4418 cmH2O · s/mL; in the data set on Balb/c mice (setting [5]), 4.1067 cmH2O · s/mL and 9.4002 cmH2O · s/mL and 2.2229 cmH2O · s/mL and 4.0926 cmH2O · s/mL and 2.1844 cmH2O · s/mL. In addition, the “Airway resistance, elastance or compliance” value with Balb/c mice (allergen (HDM)-challenged mice, vs solvent group) is on record as “no effect”. For the same compound, the “Airway compliance, change vs solvent group” value with Balb/c mice (setting [3]) is reported as “+115%”. In addition, the “Elastance, change vs solvent group” value with Balb/c mice (setting [3]) is given as −65%. Also, in the data set with Balb/c mice (chronic asthma (saline-challenged), methacholine 50 mg/ml, P140 i.v. 4 mg/kg day 25, non-significant), the “Airway resistance, change vs solvent group” value is recorded as −42%. In the data set with Balb/c mice (saline-challenged mice, P140 i.v. 4 mg/kg day 25, vs solvent-treated mice), the “Baseline airway resistance, elastance and compliance after PBS inhalation” value is recorded as “no effect on any parameter”. For the same compound, the “Median survival of mice” value with MRL/lpr mice was found to be 29 weeks. Besides, the “Response rate (SRI-4)” value is recorded as 71.1% in the data set with SLE patients (Anti dsDNA+ European study population, placebo 48.8%) and 61.5% with SLE patients (Anti dsDNA+ patients, full study population, 52 weeks, plus standard of care, placebo 47.3%). Also, in the data set with SLE patients (Anti dsDNA+ patients, none in the placebo group), the “Patients in full remission” value came to 7.6%. Moreover, the Tolerability entry with SLE patients (SLE patients, 52 weeks) is “well tolerated”.
